What was measured:
[1] = target: T1, BRD4^Short (Homo sapiens, UniProt O60885); assay: Western blot dose-response degradation in HEK293 cells; assay type: cell-based; settings: 6 h, mean ± S.E.M. of three experiments, values marked b mean ± S.D. of two
T1 construct: Western blot data for BET, CRBN and VHL protein levels; endogenous in cells; host or cells: HEK293 (ATCC)
Procedure: (§1) HEK293 cells were obtained from ATCC. HEK293 was cultured in DMEM supplemented with 10% (v/v) fetal bovine serum (FBS), 1% […] and 1% (v/v) penicillin/streptomycin (pen/strep) at 37 °C, 5% CO2, and 95% humidity.
(§2) HEK293 cells were plated at a density of 5 × 10^5 cells per well of a six well plate a day prior to initiation of the experiment. Compounds were dissolved to a 10 mM concentrated stock solution in DMSO from which the compounds were further diluted to a working concentration range of 1 μM to 100 pM in DMEM and was subsequently added to cells at the initiation of the experiment. An additional vehicle control was added to cells alongside compound treatments. Cells were left to incubate with compound for 6 h at 37 °C, 5% CO2, and 95% humidity. Cells were then subsequently washed twice with PBS before being harvested in RIPA buffer supplemented with protease inhibitor cocktail and Benzonase Nuclease before being store at −20 °C.
(§3) Protein concentration was determined using the BCA assay. Samples were then prepared in LDS buffer containing 5% 1 M DTT and subsequently loaded onto NuPAGE 4–12% Bis-Tris Midi gels, followed by the transfer of the proteins onto nitrocellulose membranes. The membranes were blocked for 1 h prior to incubation with the primary antibodies using 5% Milk TBST. Membranes were incubated at 4 °C in either BRD4(Ab128874), BRD3(Ab50818), BRD2(Ab139690), VHL(CST#68547) and CRBN(CST#71810) primary antibody overnight. Following overnight incubation, the membranes were incubated with complementary IRDye 800CW secondary antibody and a hFAB Rhodamine Anti-Tubulin Primary Antibody (loading control) for 1 h and then imaged with a Bio-Rad imager. All Western blots were analyzed for band intensities using Image Lab (Bio-Rad). The data extracted from these blots were then plotted and analyzed using Prism (v. 10.2.2, GraphPad). Linear regression curve fitting was used to calculate pDC50 values. The standard deviation of the pDC50 was calculated for all compounds that had two independent repeats and the standard error of the mean calculated for all compounds that had three independent repeats. All Western blotting figures were developed in Adobe illustrator.

[2] = target: T2, BRD3 (Homo sapiens, UniProt Q15059); assay: as above; assay type: cell-based; settings: 6 h, mean ± S.E.M. of three experiments, values marked b mean ± S.D. of two
T2 construct: HiBiT, is appended to the N-terminus of endogenous BRD2, BRD3, and BRD4; endogenous in cells
T2 sequence (Q15059 whole entry): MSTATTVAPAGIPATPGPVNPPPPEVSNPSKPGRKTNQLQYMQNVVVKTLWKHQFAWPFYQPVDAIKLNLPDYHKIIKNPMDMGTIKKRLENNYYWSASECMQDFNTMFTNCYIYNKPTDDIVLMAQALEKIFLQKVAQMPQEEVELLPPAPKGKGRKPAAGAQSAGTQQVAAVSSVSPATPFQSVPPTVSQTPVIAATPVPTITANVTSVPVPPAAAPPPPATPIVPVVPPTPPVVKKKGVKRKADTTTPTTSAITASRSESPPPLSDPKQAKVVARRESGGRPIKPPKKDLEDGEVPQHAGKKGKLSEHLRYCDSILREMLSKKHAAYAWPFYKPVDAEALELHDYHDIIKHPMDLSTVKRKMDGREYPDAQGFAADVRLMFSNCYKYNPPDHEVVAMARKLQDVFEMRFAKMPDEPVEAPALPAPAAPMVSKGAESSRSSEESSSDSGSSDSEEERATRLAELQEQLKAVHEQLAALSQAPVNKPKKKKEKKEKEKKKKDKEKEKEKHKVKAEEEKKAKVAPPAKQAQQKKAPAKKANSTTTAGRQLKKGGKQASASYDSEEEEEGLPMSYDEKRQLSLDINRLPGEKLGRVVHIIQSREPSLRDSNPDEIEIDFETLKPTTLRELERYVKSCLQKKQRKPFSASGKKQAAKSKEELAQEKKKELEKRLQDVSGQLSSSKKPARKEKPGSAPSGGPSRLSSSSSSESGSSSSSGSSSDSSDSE
Procedure: as §1, §2, §3

[3] = target: T3, BRD4^Long (Homo sapiens, UniProt O60885); assay: as above; assay type: cell-based; settings: HEK293 cells, 6 h, Western blot; mean ± S.E.M. of three experiments, values marked b mean ± S.D. of two
T3 construct: Western blot data for BET, CRBN and VHL protein levels; endogenous in cells; host or cells: HEK293 (ATCC)
Procedure: as §1, §2, §3

[4] = target: T4, BRD2 (Homo sapiens, UniProt P25440); assay: as above; assay type: cell-based; settings: 6 h, mean ± S.E.M. of three experiments, values marked b mean ± S.D. of two
T4 construct: HiBiT, is appended to the N-terminus of endogenous BRD2, BRD3, and BRD4; endogenous in cells
T4 sequence (P25440 whole entry): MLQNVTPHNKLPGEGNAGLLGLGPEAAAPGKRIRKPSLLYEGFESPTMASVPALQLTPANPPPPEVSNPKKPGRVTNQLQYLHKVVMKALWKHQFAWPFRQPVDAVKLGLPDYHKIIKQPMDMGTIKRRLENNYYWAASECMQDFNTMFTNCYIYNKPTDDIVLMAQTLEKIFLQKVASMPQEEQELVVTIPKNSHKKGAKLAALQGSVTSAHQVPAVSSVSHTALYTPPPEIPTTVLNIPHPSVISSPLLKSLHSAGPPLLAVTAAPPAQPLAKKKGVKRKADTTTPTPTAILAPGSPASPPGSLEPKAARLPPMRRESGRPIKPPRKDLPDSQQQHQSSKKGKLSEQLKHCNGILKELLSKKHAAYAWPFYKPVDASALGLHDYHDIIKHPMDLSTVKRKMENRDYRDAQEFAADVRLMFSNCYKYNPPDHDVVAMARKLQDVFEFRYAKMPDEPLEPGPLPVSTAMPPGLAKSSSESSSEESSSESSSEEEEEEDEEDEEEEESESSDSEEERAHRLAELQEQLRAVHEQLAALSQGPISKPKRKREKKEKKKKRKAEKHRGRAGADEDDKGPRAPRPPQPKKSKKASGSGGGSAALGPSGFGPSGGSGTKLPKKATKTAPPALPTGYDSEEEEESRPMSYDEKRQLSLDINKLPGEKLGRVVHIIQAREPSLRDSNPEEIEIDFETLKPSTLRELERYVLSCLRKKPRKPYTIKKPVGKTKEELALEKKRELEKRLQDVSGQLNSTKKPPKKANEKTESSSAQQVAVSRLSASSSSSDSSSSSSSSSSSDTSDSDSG
Procedure: as §1, §2, §3

[5] = target: T4, BRD2; assay: Live cell kinetic HiBiT degradation assay, HiBiT-BRD2 HEK293 cells; assay type: cell-based; settings: for DC50: HiBiT-BRD2 CRISPR knock-in HEK293 cells, live cell kinetic degradation, 24 h, read-out: Dmax 50 BRD2; for λmax BRD2 (degradation rate): HiBiT-BRD2 knock-in HEK293 cells
In short: (§4)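 HEK293 cells with CRISPR-inserted N-terminal HiBiT on endogenous BRD2 or BRD3, stably expressing LgBiT, equilibrated 3 h with Endurazine at 37 °C, then treated with threefold PROTAC dilution series. Luminescence read every 7 min for 24 h, normalized to pre-read and DMSO; Dmax as lowest signal, rate constant by one-phase exponential decay, Dmax50 from Dmax-concentration fit.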

[6] = target: CRBN (Homo sapiens, UniProt Q96SW2); assay: Western blot dose-response degradation in HEK293 cells; assay type: cell-based; parameters: Western blot data for BET, CRBN and VHL protein levels; endogenous in cells; host or cells: HEK293 (ATCC); settings: for DC50: HEK293 cells, 6 h, Western blot, mean ± S.E.M. of three experiments, values marked b mean ± S.D. of two
CRBN, sequence (Q96SW2 whole entry): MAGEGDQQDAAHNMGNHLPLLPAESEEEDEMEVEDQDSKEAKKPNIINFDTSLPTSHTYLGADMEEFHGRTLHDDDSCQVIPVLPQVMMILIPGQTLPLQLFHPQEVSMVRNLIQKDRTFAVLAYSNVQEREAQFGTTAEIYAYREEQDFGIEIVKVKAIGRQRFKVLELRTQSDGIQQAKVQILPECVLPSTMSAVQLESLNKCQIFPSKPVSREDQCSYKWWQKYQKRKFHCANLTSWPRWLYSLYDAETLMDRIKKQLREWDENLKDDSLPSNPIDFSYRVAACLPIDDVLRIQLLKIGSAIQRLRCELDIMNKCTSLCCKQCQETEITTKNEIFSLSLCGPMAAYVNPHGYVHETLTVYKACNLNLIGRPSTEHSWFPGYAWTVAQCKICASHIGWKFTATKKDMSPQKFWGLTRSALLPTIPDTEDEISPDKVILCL
Procedure: as §1, §2, §3

[7] = tested on: KBM7 cells; assay: Cell viability assay (CellTiter-Glo); assay type: cell-based, human; settings: Homo sapiens, KBM-7; WT KBM7, 5.12 pM to 10 uM, n = 3 (Table S4)
[8] = tested on: K562 cells; assay: Cell viability assay (CellTiter-Glo); assay type: cell-based, human; settings: Homo sapiens; WT K562, 5.12 pM to 10 uM, n = 3 (Table S4)
[9] = target: T2, BRD3; assay: Live cell kinetic HiBiT degradation assay, HiBiT-BRD3 HEK293 cells; assay type: cell-based; settings: for DC50: HiBiT-BRD3 CRISPR knock-in HEK293 cells, live cell kinetic degradation, 24 h, read-out: Dmax 50 BRD3; for λmax BRD3 (degradation rate): HiBiT-BRD3 knock-in HEK293 cells
In short: as §4

Row | Structure (SMILES) | DC50 [1] [nM] | DC50 [2] [nM] | DC50 [3] [nM] | DC50 [4] [nM] | DC50 [5] [nM] | λmax BRD2 (degradation rate) [5] [h⁻¹] | DC50 [6] [nM] | EC50 [7] [nM] | EC50 [8] [nM] | DC50 [9] [nM] | λmax BRD3 (degradation rate) [9] [h⁻¹] | fold increase in CRBN degradation vs nonmethylated matched pair ([6]; 27 vs 26, 24 vs 23, DC50, HEK293 Western blot) [fold] | fold weaker degradation of CRBN compared with aniline tethered matched pair ([6]; 31 and 32 compared with 23 and 27, respectively, DC50, HEK293 Western blot) [fold]
1 | Cc1ncsc1-c1ccc(CNC(=O)[C@@H]2C[C@@H](O)CN2C(=O)[C@@H](NC(=O)COCC(C)(COCCOCCOCCNc2cc3c(cc2F)C(=O)N(C2CCC(=O)NC2=O)C3=O)COCCOCCOCCOC(=O)C[C@@H]2N=C(c3ccc(Cl)cc3)c3c(sc(C)c3C)-n3c(C)nnc32)C(C)(C)C)cc1 (mixture of isomers) [AB3063 (26), (17S)-11-((2-(2-(2-((2-(2,6-dioxopiperidin-3-yl)-6-fluoro-1,3-dioxoisoindolin-5-yl)amino)ethoxy)ethoxy)ethoxy)methyl)-17-((2S,4R)-4-hydroxy-2-((4-(4-methylthiazol-5-yl)benzyl)carbamoyl)pyrrolidine-1-carbonyl)-11,18,18-trimethyl-15-oxo-3,6,9,13-tetraoxa-16-azanonadecyl 2-((S)-4-(4-chlorophenyl)-2,3,9-trimethyl-6H-thieno[3,2-f][1,2,4]triazolo[4,3-a][1,4]diazepin-6-yl)acetate] | 3.2 ± 0.9 | 4.8 ± 2.4 | 0.76 ± 0.1 | 14 ± 4.6 | 4.7 | 1.72 | 200 ± 31 | 21.2 | 74.1 | 1.5 | 2.54 |  | 
2 | Cc1ncsc1-c1ccc([C@H](C)NC(=O)[C@@H]2C[C@@H](O)CN2C(=O)[C@@H](NC(=O)COCC(C)(COCCOCCOCCNc2cccc3c2C(=O)N(C2CCC(=O)NC2=O)C3=O)COCCOCCOCCOC(=O)C[C@@H]2N=C(c3ccc(Cl)cc3)c3c(sc(C)c3C)-n3c(C)nnc32)C(C)(C)C)cc1 (mixture of isomers) [AB3066 (24), (17S)-11-((2-(2-(2-((2-(2,6-dioxopiperidin-3-yl)-1,3-dioxoisoindolin-4-yl)amino)ethoxy)ethoxy)ethoxy)methyl)-17-((2S,4R)-4-hydroxy-2-(((S)-1-(4-(4-methylthiazol-5-yl)phenyl)ethyl)carbamoyl)pyrrolidine-1-carbonyl)-11,18,18-trimethyl-15-oxo-3,6,9,13-tetraoxa-16-azanonadecyl 2-((S)-4-(4-chlorophenyl)-2,3,9-trimethyl-6H-thieno[3,2-f][1,2,4]triazolo[4,3-a][1,4]diazepin-6-yl)acetate] | 5.9 ± 2.3 | 8.9 ± 1.5 | 6.8 ± 1.3 | 43 ± 1.1 | 7.3 | 2.04 | 81 ± 11 | 38 | 134 |  | 2.66 | ~2.6 | 
3 | Cc1ncsc1-c1ccc(CNC(=O)[C@@H]2C[C@@H](O)CN2C(=O)[C@@H](NC(=O)COCC(C)(COCCOCCOCCOC(=O)C[C@@H]2N=C(c3ccc(Cl)cc3)c3c(sc(C)c3C)-n3c(C)nnc32)COCCOCCOCCN2CCN(c3cc4c(cc3F)C(=O)N(C3CCC(=O)NC3=O)C4=O)CC2)C(C)(C)C)cc1 (mixture of isomers) [AB3030 (32), (17S)-11-((2-(2-(2-(4-(2-(2,6-dioxopiperidin-3-yl)-6-fluoro-1,3-dioxoisoindolin-5-yl)piperazin-1-yl)ethoxy)ethoxy)ethoxy)methyl)-17-((2S,4R)-4-hydroxy-2-((4-(4-methylthiazol-5-yl)benzyl)carbamoyl)pyrrolidine-1-carbonyl)-11,18,18-trimethyl-15-oxo-3,6,9,13-tetraoxa-16-azanonadecyl 2-((S)-4-(4-chlorophenyl)-2,3,9-trimethyl-6H-thieno[3,2-f][1,2,4]triazolo[4,3-a][1,4]diazepin-6-yl)acetate] | 9.4 ± 1.9 | 6.4 ± 1.9 | 7.3 ± 2.1 | 28 ± 7.3 | 25 | 2.04 | 730 ± 270 | 78 | 192 | 1.7 | 2.97 |  | 3.7
